In patent US20230312578A1, “6H-INDOLO[2,3-B]QUINOXALINE DERIVATIVES USEFUL IN THERAPY” (Vironova Medical AB, priority 2020, published 2023):
Like-named read-outs stand apart in the source and are kept apart here.

Legend:
Assay type in all cases: cell-based
HL-60(TB) = experiment: Human tumor cell line growth assay (SRB); settings: Leukemia, 48 h
[1] = Human tumor cell line growth assay (SRB); settings: human, A549/ATCC cells (NSCLC), read-out: LC50
A549/ATCC = experiment: Human tumor cell line growth assay (SRB); settings: Homo sapiens, NSCLC, 48 h
[2] = Human tumor cell line growth assay (SRB); settings: human, EKVX cells (NSCLC), read-out: LC50
EKVX = experiment: Human tumor cell line growth assay (SRB); settings: Homo sapiens, NSCLC, 48 h
HOP-92 = experiment: Human tumor cell line growth assay (SRB); settings: Homo sapiens; NSCLC, HOP-92, 48 h
[3] = Human tumor cell line growth assay (SRB); settings: human, NCI-H23 cells (NSCLC), NCI-H23, 48 h, read-out: LC50
NCI-H23 = experiment: Human tumor cell line growth assay (SRB); settings: Homo sapiens; NSCLC, NCI-H23, 48 h
[4] = Human tumor cell line growth assay (SRB); settings: human, NCI-H460 cells (NSCLC), NCI-H460, 48 h, read-out: LC50
NCI-H460 = experiment: Human tumor cell line growth assay (SRB); settings: Homo sapiens; NSCLC, NCI-H460, 48 h
[5] = Human tumor cell line growth assay (SRB); settings: human, HCC-2998 cells (colon), HCC-2998, 48 h, read-out: LC50
HCC-2998 = experiment: Human tumor cell line growth assay (SRB); settings: Homo sapiens; Colon, HCC-2998, 48 h
[6] = Human tumor cell line growth assay (SRB); settings: human, HCT-116 cells (colon), HCT-116, 48 h, read-out: LC50
HCT-116 = experiment: Human tumor cell line growth assay (SRB); settings: Homo sapiens; Colon, HCT-116, 48 h
[7] = Human tumor cell line growth assay (SRB); settings: human, HT29 cells (colon), HT29, 48 h, read-out: LC50
HT29 = experiment: Human tumor cell line growth assay (SRB); settings: Homo sapiens, HT-29; Colon, HT29, 48 h
[8] = Human tumor cell line growth assay (SRB); settings: human, SW-620 cells (colon), SW-620, 48 h
SW-620 = experiment: Human tumor cell line growth assay (SRB); settings: Homo sapiens; Colon, SW-620, 48 h
[9] = Human tumor cell line growth assay (SRB); settings: human, LOX IMVI cells (melanoma), read-out: LC50
LOX IMVI = experiment: Human tumor cell line growth assay (SRB); settings: Homo sapiens, Melanoma, 48 h
[10] = Human tumor cell line growth assay (SRB); settings: human, MALME-3M cells (melanoma), read-out: LC50
MALME-3M = experiment: Human tumor cell line growth assay (SRB); settings: Homo sapiens, Melanoma, 48 h
[11] = Human tumor cell line growth assay (SRB); settings: human, MDA-MB-435 cells (melanoma), MDA-MB-435, 48 h, read-out: LC50
MDA-MB-435 = experiment: Human tumor cell line growth assay (SRB); settings: Homo sapiens; Melanoma, MDA-MB-435, 48 h
[12] = Human tumor cell line growth assay (SRB); settings: human, SK-MEL-2 cells (melanoma), SK-MEL-2, 48 h, read-out: LC50
SK-MEL-2 = experiment: Human tumor cell line growth assay (SRB); settings: Homo sapiens; Melanoma, SK-MEL-2, 48 h
[13] = Human tumor cell line growth assay (SRB); settings: human, SK-MEL-28 cells (melanoma), SK-MEL-28, 48 h, read-out: LC50
SK-MEL-28 = experiment: Human tumor cell line growth assay (SRB); settings: Homo sapiens; Melanoma, SK-MEL-28, 48 h
[14] = Human tumor cell line growth assay (SRB); settings: human, UACC-62 cells (melanoma), UACC-62, 48 h, read-out: LC50
UACC-62 = experiment: Human tumor cell line growth assay (SRB); settings: Homo sapiens; Melanoma, UACC-62, 48 h
OVCAR-8 = experiment: Human tumor cell line growth assay (SRB); settings: Ovarian, OVCAR-8, 48 h
NCI/ADR-RES = experiment: Human tumor cell line growth assay (SRB); settings: Ovarian, 48 h
SK-OV-3 = experiment: Human tumor cell line growth assay (SRB); settings: Ovarian, SK-OV-3, 48 h
TK-10 = experiment: Human tumor cell line growth assay (SRB); settings: Renal, TK-10, 48 h
UO-31 = experiment: Human tumor cell line growth assay (SRB); settings: Renal, UO-31, 48 h
HS 578T = experiment: Human tumor cell line growth assay (SRB); settings: Breast, 48 h
Human tumor cell lines = experiment: Human tumor cell line growth assay (SRB), summary over the panel; settings: overall over the panel
[15] = read-out: LC50 (the source's name)

Cc1cc2nc3c4cc(N)ccc4n(CCN(C)C)c3nc2cc1C [JBD-136, 6-(2-(dimethylamino)ethyl)-2,3-dimethyl-6H-indolo [2,3-b]quinoxalin-9-amine]
GI50 (HL-60(TB)): 1210 nM | CC50 (HL-60(TB); [15]): 21900 nM | CC50 at 48 h [1]: > 100000 nM | GI50 (A549/ATCC): 464 nM | CC50 at 48 h [2]: > 100000 nM | GI50 (EKVX): 1990 nM | GI50 (HOP-92): 912 nM | CC50 at 48 h [3]: 33000 nM | GI50 (NCI-H23): 1080 nM | CC50 at 48 h [4]: 36600 nM | GI50 (NCI-H460): 434 nM | CC50 at 48 h [5]: 21900 nM | GI50 (HCC-2998): 1020 nM | CC50 at 48 h [6]: 51400 nM | GI50 (HCT-116): 369 nM | CC50 at 48 h [7]: > 100000 nM | GI50 (HT29): 430 nM | LC50 (50% lethal concentration) at 48 h [8]: 83800 nM | GI50 (SW-620): 389 nM | CC50 at 48 h [9]: 21800 nM | GI50 (LOX IMVI): 494 nM | CC50 at 48 h [10]: 7430 nM | GI50 (MALME-3M): 1270 nM | CC50 at 48 h [11]: 5600 nM | GI50 (MDA-MB-435): 1050 nM | CC50 at 48 h [12]: 66700 nM | GI50 (SK-MEL-2): 1630 nM | CC50 at 48 h [13]: 11400 nM | GI50 (SK-MEL-28): 2260 nM | CC50 at 48 h [14]: 7990 nM | GI50 (UACC-62): 1180 nM | GI50 (OVCAR-8): 556 nM | CC50 (OVCAR-8; [15]): > 100000 nM | GI50 (NCI/ADR-RES): 506 nM | CC50 (NCI/ADR-RES; [15]): > 100000 nM | GI50 (SK-OV-3): 2230 nM | CC50 (SK-OV-3; [15]): > 100000 nM | GI50 (TK-10): 2260 nM | CC50 (TK-10; [15]): > 100000 nM | GI50 (UO-31): 332 nM | CC50 (UO-31; [15]): 55300 nM | GI50 (HS 578T): 2120 nM | CC50 (HS 578T; [15]): > 100000 nM | growth inhibition (GI50), comparison in words (Human tumor cell lines): slightly improved growth inhibition and cytotoxicity compared to B220
